Assay results from the supplement of paper PMC11451515.

Experiments:
Assay in all cases: AUC of viability dose-response curve (% viability x log10 dose units); higher = less sensitive
Details in all cases: 48 h
NOMO1 = test system: NOMO1
Procedure, shortened: (§1)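 Seeding of medium-adapted leukemia cells was at 500 or 1000 cells/well in 1536-well plates, followed by 48 h at 37°C with library compounds in DMSO at 11 threefold doses from 47 μM to 0.79 nM. CellTiter-Glo One luminescence was normalised per plate to DMSO and cell-free wells and fitted as a four-parameter log-logistic function of log10 dose. Area under the curve was integrated by trapezoidal rule, with curves exceeding full viability scaled and curves failing quality control removed.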

P12-Ichikawa = test system: P12-Ichikawa
Procedure, shortened: as §1

SEM cells = test system: SEM cells
Procedure, shortened: as §1

[1] = RPMI 5 mM glucose + 10% dialyzed FBS

SMILES | AUC of viability dose-response curve (NOMO1; HPLM + 10% dialyzed FBS) | AUC of viability dose-response curve (NOMO1; RPMI 5 mM glucose + 10% FBS) | AUC of viability dose-response curve (NOMO1; [1]) | AUC of viability dose-response curve (P12-Ichikawa; HPLM + 10% dialyzed FBS) | AUC of viability dose-response curve (P12-Ichikawa; RPMI 5 mM glucose + 10% FBS) | AUC of viability dose-response curve (P12-Ichikawa; [1]) | AUC of viability dose-response curve (SEM cells; HPLM + 10% dialyzed FBS) | AUC of viability dose-response curve (SEM cells; RPMI 5 mM glucose + 10% FBS) | AUC of viability dose-response curve (SEM cells; [1])
CCC(C)SSc1ncc[nH]1 (stereo not given) | 416 | 426 | 432 | 441 | 418 | 393 | 377 | 361 | 323
CC(C)NCC(O)COc1ccc(COCCOC(C)C)cc1 (stereo not given) | 458 | 461 | 459 | 457 | 463 | 463 | 468 | 474 | 469
NC(=O)c1cnc(N[C@@H]2CCCC[C@@H]2N)nc1Nc1cccc(-n2nccn2)c1 | 457 | 457 | 453 | 468 | 462 | 471 | 419 | 420 | 428
CC1CCC(C(=O)N(c2cc(C#CC(C)(C)C)sc2C(=O)O)C2CCC(O)CC2)CC1 (stereo not given) | 410 | 408 | 411 | 419 | 394 | 375 | 426 | 430 | 400
O=C(NOCC(O)CO)c1cc(Br)c(F)c(F)c1Nc1ccc(I)cc1F (stereo not given) | 238 | 244 | 219 | 361 | 333 | 345 | 327 | 340 | 306
CCC1(C)CC(=O)NC1=O (stereo not given) | 437 | 421 | 450 | 458 | 459 | 467 | 465 | 462 | 460
C[C@]12C[C@H](O)[C@H]3[C@@H](CC\C4=C\C(=O)\C=C/[C@]34C)[C@@H]1CC[C@]2(O)C(=O)CO | 446 | 456 | 449 | 372 | 353 | 349 | 389 | 380 | 359
C[C@H](O)[C@H]1[C@@H]2[C@H](C)C(=C(\N2C1=O)C(O)=O)/S[C@@H]3CN[C@H](CN[S+](N)([O-])=O)C3 | 439 | 443 | 452 | 465 | 455 | 447 | 443 | 453 | 420
COc1c(C)cnc(Cn2cnc3c(Cl)nc(N)nc32)c1C | 322 | 324 | 323 | 376 | 334 | 340 | 306 | 293 | 306
CNC1CCC(N(Cc2cccc(-c3ccncc3)c2)C(=O)c2sc3ccccc3c2Cl)CC1 (stereo not given) | 330 | 326 | 381 | 319 | 326 | 302 | 310 | 267 | 279
CC(C)(C)C(=O)Oc1ccc2c(c1)nc(NC(=O)c1cccc([N+](=O)[O-])c1)n2CCCO | 461 | 459 | 458 | 460 | 437 | 445 | 448 | 452 | 418
C#Cc1cccc(Nc2ncnc3cc(OCCOC)c(OCCOC)cc23)c1 | 433 | 440 | 400 | 445 | 421 | 418 | 425 | 453 | 390
CC\1=C/C=C\C=[N]1[Pt](N)(Cl)Cl | 471 | 465 | 463 | 472 | 467 | 464 | 427 | 465 | 421
CC1=CC=CC=C1N2\C(=N/C3=C(C(=CC=C3)C)C2=O)C[N]4C=NC5=C4N=CN=C5N | 369 | 427 | 406 | 439 | 412 | 419 | 344 | 308 | 344
Cn1c(=O)c2c(ncn2C)n(C)c1=O.O=C(O)CC(O)(CC(=O)O)C(=O)O | 439 | 465 | 455 | 459 | 462 | 472 | 472 | 456 | 475
CC1(C)O[C@@H]2C[C@H]3[C@@H]4CCC5=CC(=O)C=C[C@]5(C)[C@@]4(F)[C@@H](O)C[C@]3(C)[C@]2(C(=O)CO)O1 | 411 | 418 | 456 | 315 | 288 | 288 | 255 | 270 | 280
COc1cnc(N[S+](=O)([O-])c2ccc(N)cc2)nc1 | 445 | 457 | 448 | 449 | 459 | 460 | 428 | 459 | 443
CCCCCCCCCCCCCCCCCCCCCCO | 458 | 444 | 456 | 445 | 461 | 447 | 444 | 460 | 447
COC1=NC(=NC(=C1N\C2=N\CCN2)Cl)C | 446 | 429 | 418 | 413 | 450 | 424 | 420 | 380 | 426
CC(C)n1nc(-c2cc3cc(O)ccc3[nH]2)c2c(N)ncnc21 | 350 | 399 | 355 | 360 | 332 | 341 | 306 | 327 | 317
CC(=O)Nc1ccc(OC[C@](C)(O)C(=O)Nc2ccc([N+](=O)[O-])c(C(F)(F)F)c2)cc1 | 375 | 388 | 404 | 416 | 384 | 383 | 346 | 399 | 411
O=NN(CCCl)C(=O)NCCCl | 462 | 461 | 463 | 465 | 471 | 472 | 463 | 455 | 456
OC(=O)C1=CC=C(NC2=NC3=C(C\N=C(/C4=CC(=CC=C34)Cl)C5=C(F)C=CC=C5F)C=N2)C=C1 | 394 | 343 | 362 | 344 | 345 | 353 | 389 | 373 | 365

SMILES | AUC of viability dose-response curve (NOMO1; HPLM + 10% dialyzed FBS) | AUC of viability dose-response curve (NOMO1; RPMI 5 mM glucose + 10% FBS) | AUC of viability dose-response curve (NOMO1; [1]) | AUC of viability dose-response curve (P12-Ichikawa; HPLM + 10% dialyzed FBS) | AUC of viability dose-response curve (P12-Ichikawa; RPMI 5 mM glucose + 10% FBS) | AUC of viability dose-response curve (P12-Ichikawa; [1]) | AUC of viability dose-response curve (SEM cells; HPLM + 10% dialyzed FBS) | AUC of viability dose-response curve (SEM cells; RPMI 5 mM glucose + 10% FBS) | AUC of viability dose-response curve (SEM cells; [1])
CC(N[C@H]1C[C@@H]1c1ccccc1)c1ccc2c(c1)OCCO2 (stereo not given in full) | 434 | 470 | 470 | 458 | 469 | 451 | 475 | 467 | 471
c1cncc(CN2CCC(n3ncc4c(N5CCOCC5)nc(-c5ccc6[nH]ccc6c5)nc43)CC2)c1 | 374 | 372 | 362 | 426 | 351 | 357 | 376 | 370 | 352
Cc1c(CCOc2ccc(C(=O)O)cc2)c2cc(Cl)ccc2n1C(c1ccccc1)c1ccccc1 | 457 | 442 | 443 | 442 | 468 | 459 | 470 | 450 | 451
CC\1=C(C(\N=C(/N1)C2=CC(=NC=C2)Cl)C3=C(F)C=C(Cl)C=C3)/C(=O)NC4=C(F)C=C5[NH]N=CC5=C4 (stereo not given) | 459 | 443 | 457 | 440 | 439 | 441 | 408 | 405 | 423
CC(=O)N(C)c1cccc(-c2ccnc3c(C(=O)c4cccs4)cnn23)c1 | 477 | 470 | 437 | 458 | 454 | 453 | 447 | 456 | 439
C[C@](O)(COc1ccc(C#N)cc1)C(=O)Nc1ccc(C#N)c(C(F)(F)F)c1 | 422 | 435 | 433 | 445 | 413 | 382 | 388 | 396 | 400
O=NN(CCCl)C(=O)NC1CCCCC1 | 474 | 472 | 475 | 468 | 453 | 462 | 445 | 475 | 433
COc1ccc(Cc2ccc(NC(N)=O)cc2)cc1-c1cccc(Cl)c1 | 472 | 471 | 476 | 467 | 465 | 464 | 458 | 465 | 469
O=C([O-])C(O)Cc1ccc(O)c(O)c1 (stereo not given) | 447 | 416 | 434 | 453 | 452 | 438 | 398 | 413 | 387
COc1cc2nc(N(C)CCCNC(=O)C3CCCO3)nc(N)c2cc1OC (stereo not given) | 336 | 297 | 331 | 416 | 431 | 384 | 358 | 355 | 378
N=C(CCSCc1csc(N=C(N)N)n1)N[S+](N)(=O)[O-] | 459 | 439 | 461 | 467 | 454 | 432 | 452 | 458 | 421
Cc1cn2c(-c3cn[nH]c3)cnc2c(Nc2ccc(C(=O)N3CCNCC3)cc2F)n1 | 430 | 417 | 409 | 444 | 440 | 439 | 419 | 424 | 421
Nc1ccccc1NC(=O)c1ccc(CNC(=O)OCc2cccnc2)cc1 | 326 | 351 | 334 | 350 | 354 | 347 | 313 | 308 | 310
C[C@H]1[C@H](NC(=O)/C(=N/OC(C)(C)C(=O)O)c2csc(N)n2)C(=O)N1[S+](=O)([O-])O | 455 | 475 | 445 | 470 | 471 | 467 | 468 | 471 | 450
CCc1cncnc1N1CCN(Cc2nc3cc(C(F)(F)F)ccc3[nH]2)CC1 | 462 | 425 | 426 | 445 | 437 | 451 | 429 | 425 | 426
OC1=CC=C(C=C1)\C2=C\OC3=C(C=CC(=C3)O)C2=O | 473 | 459 | 470 | 446 | 446 | 457 | 472 | 467 | 467
COc1cc2c(cc1-c1c(C)noc1C)ncc1[nH]c(=O)n([C@H](C)c3ccccn3)c12 | 373 | 382 | 382 | 380 | 396 | 393 | 336 | 336 | 323
CN(C)c1ccc(O)c2c1C[C@H]1C[C@H]3[C@H](N(C)C)C(O)=C(C(N)=O)C(=O)[C@@]3(O)C(O)=C1C2=O | 475 | 474 | 409 | 468 | 452 | 420 | 448 | 467 | 475
CN[S+](=O)([O-])Cc1ccc2[nH]cc(CCN(C)C)c2c1 | 454 | 443 | 454 | 467 | 457 | 460 | 442 | 431 | 456
CC(C)n1c(/C=C/[C@H](O)C[C@H](O)CC(=O)O)c(-c2ccc(F)cc2)c2ccccc21 | 428 | 457 | 448 | 381 | 371 | 355 | 430 | 426 | 441
COc1ccc(CC2NCCc3cc(OC)c(OC)cc32)cc1OC (stereo not given) | 451 | 427 | 407 | 459 | 416 | 420 | 397 | 390 | 403
CC[C@H](CC[C@@H](C)[C@H]1CC[C@H]2[C@@H]3C\C=C/4C[C@@H](O)CC[C@]4(C)[C@H]3CC[C@]12C)C(C)C | 420 | 449 | 431 | 448 | 453 | 446 | 452 | 469 | 467
